Laboratory results: patent US9801922B2, “Compositions and methods of treating cancer” (UNIVERSITY OF IOWA RESEARCH FOUNDATION, priority 2011, dated 2017)

What was measured:
SUM159 cells [1] = test: Glutathione analysis (total GSH, GSSG); format: cell-based, human; details: for % GSSG: untreated 1.13%
Procedure: FIG. 18: Intracellular GSH&GSSG measured in BSO, DTPP, and AUR exposed SUM159 cells. Asynchronously growing cultures of SUM159 were plated and treated as described in FIG. 1. Cells were harvested and scraped in PBS at 4° C. Whole cell homogenates were used for biochemical analysis of total GSH & GSSG levels. Errors represent Mean ±1 SD of 4 samples from two separate experiments (n=4).
Glutathione analysis: SUM159 Cells were plated and treated with BSO, DTPP and AUR as described above. When cells were grown to 70-80% confluency on 100 mm dishes and scraped in PBS at 4° C., centrifuged, and the cell pellets were frozen at −20° C. until analysis. Samples were thawed and whole homogenates were prepared as described and total glutathione (GSH+GSSG) was determined using a recycling method (Spitz, D. R.; Malcolm, R. R.; Roberts, R. J. Cytotoxicity and metabolism of 4-hydroxy-2-nonenal and 2-nonenal in H2O2-resistant cell lines. Do aldehydic by-products of lipid peroxidation contribute to oxidative stress? Biochem J 267:453-459; 1990; Griffith, O. W. Determination of glutathione and glutathione disulfide using glutathione reductase and 2-vinylpyridine. Anal Biochem 106:207-212; 1980). All biochemical determinations were normalized to the protein content using the method of bicinchoninic acid protein assay.

SUM159 cells [2] = test: MitoSOX red oxidation, SUM159; format: cell-based, human
Procedure: FIGS. 4A-4C: MitoSOX oxidation in SUM159, MDA-MB231 and HMECs cells treated with BSO, DTPP and AUR. Asynchronously growing cultures of SUM159 (Panel A) MDA-MB231 (Panel B) and HMECs (Panel C) were plated and treated as described in FIG. 1. Monolayer cultures were harvested and trypsinized, washed once with PBS and labeled 20 minutes with 2 μM MitoSOX (in 0.1% DMSO) in PBS containing 5 mM pyruvate at 37° C. Each sample was then analyzed for the Mean fluorescence Intensity (MFI) of 10,000 cells by flow cytometry. Samples were assayed in triplicate; mean±1 SD of 1 experiment containing 3 treatment dishes per group (n=3), * or ^p<0.001 as compared to Control.
MitoSOX™ red oxidation to estimate mitochondrial superoxide production: To determine if DTPP can alter steady-state levels of superoxide originating from mitochondria in SUM159, MDA-MB231 and HMEC cells, the cationic superoxide sensitive dye, MitoSOX™red (Molecular Probes), was used. Cells were plated and treated as described earlier in clonogenic survival experiment. After the exposure, cells were trypsinized and washed with 5 mM/L pyruvate containing PBS once then labeled with MitoSOX™red (2 μM, in 0.1% DMSO, 20 minutes) at 37° C. After labeling, cells were kept on ice. Samples were analyzed using a FACScan flowcytometer (Becton Dickinson Immunocytometry System, INC., Mountain View, Calif.) (excitation 488 nm, emission 585 nm band-pass filter). The mean fluorescence intensity of 10,000 cells was analyzed in each sample and corrected for autofluorescence from unlabeled cells. The MFI data was normalized to control levels.

| SMILES | effect on glutathione metabolism, in words (SUM159 cells [1]) | change in MitoSOX oxidation, in words (SUM159 cells [2]; SUM159) | total GSH, in words (SUM159 cells [1]; 24 hours) | % GSSG (SUM159 cells [1]) [%] | increase in GSSG and % GSSG compared to untreated cells (SUM159 cells [1]) [fold] | GSSG (SUM159 cells [1]; untreated 0.06) [nmole GSSG/mg protein] | increase in MitoSOX red oxidation relative to control (SUM159 cells [2]; SUM159, 1 μM DTPP, 100 μM BSO 24 h, 500 nM AUR 15 min) [fold] | total amount of mitochondrial O2.- of SUM159 cells relative to HMECs after DTPP (SUM159 cells [2]; SUM159 vs HMEC) [fold] |
| --- | --- | --- | --- | --- | --- | --- | --- | --- |
| CC[PH](CC)(CC)[Au][S][C@@H]1O[C@H](COC(C)=O)[C@@H](OC(C)=O)[C@H](OC(C)=O)[C@H]1OC(C)=O [AUR, S-triethylphosphinegold(I)-2,3,4,6-tetra-O-acetyl-1-thio-β-D-glucopyranoside] | not capable of altering the glutathione metabolism | did not exhibit any change in MitoSOX oxidation | – | – | – | – | – | – |
| CCCCS(=N)(=O)CCC(N)C(=O)O [BSO, L-buthionine-[S,R]-sulfoximine, reference compound] | – | did not exhibit any change in MitoSOX oxidation | significant decreases in total GSH | 4.88 | – | – | – | – |
| CCCCCCCCCC[P+](c1ccccc1)(c1ccccc1)c1ccccc1 [DTPP, Decyl-Triphenylphosphonium] | – | – | – | 3.65 | ~3 | 0.26 | 9 | 2 |
